Source: US5753617A, “Peptide inhibitors of cellular adhesion” (Centocor, Inc., priority 1995, dated 1998)
Like-named read-outs stand apart in the source and are kept apart here. Blank lines part the entries; values can stand above or below the compound they belong to. Where a SMILES comes first, the peptide text is derived from it. Bridges are numbered along the chain shown (N, C = ends). [ ]: non-standard residue; d: D form. The star is where a group is joined. NHBu = CCCCN*

Assays:
[1] = tested on: neutrophil influx in thioglycolate-induced peritonitis; assay: Inhibition of neutrophil influx in a rat model of thioglycolate-induced peritonitis; type: in vivo
Method: CD-1 rats (175-200 g) were injected i.p. with 10 ml thioglycollate medium (BBL #21195/21196 lot#H1KBGP). At -5 minutes, 1.5 hours, and 3.5 hours post thioglycollate injection 5 rats were injected with D-arginyl-D-lysyl-cyclo(D-cysteinyl-glycyl-phenylalanyl-D-cysteinyl)-D-tryptophyl-D-threonyl-D-tryptophyl-D-valineamide (Preferred peptide (19)) (0.75 mls at -5, 0.25 mls at 1.5 and 0.25 mls at 3.5). 5 rats were injected with vehicle at the same time points (0.75 mls at -5, 0.50 mls at 1.5, and 0.25 mls at 3.5). 5 rats received thiogycollate only and served as controls. At 4 hours post thioglycollate injection all animals were sacrificed by CO2 asphyxiation. Neutrophils were harvested by flushing the peritoneal cavity with 50 mls of Hanks balanced salt solution w/o Ca and Mg (JHR Biosciences 55-02178P Lot# IL3697) containing 0.3% ultrapure EDTA (JT Baker 4040-01 lot# D42704). White cells were then counted using the Danam Vet 8 cell counter.

P-selectin = biological target: T1, P-selectin (Homo sapiens, UniProt P16109); assay: Inhibition of human neutrophil adhesion to purified P-selectin immobilized on plastic wells; type: cell-based; details: inhibiting the binding of human neutrophils to P-selectin
T1 construct: P-selectin is isolated from human platelet lysates; from tissue; host or cells: human platelets (outdated platelet packs from a blood bank)
T1 sequence (P16109 42-830): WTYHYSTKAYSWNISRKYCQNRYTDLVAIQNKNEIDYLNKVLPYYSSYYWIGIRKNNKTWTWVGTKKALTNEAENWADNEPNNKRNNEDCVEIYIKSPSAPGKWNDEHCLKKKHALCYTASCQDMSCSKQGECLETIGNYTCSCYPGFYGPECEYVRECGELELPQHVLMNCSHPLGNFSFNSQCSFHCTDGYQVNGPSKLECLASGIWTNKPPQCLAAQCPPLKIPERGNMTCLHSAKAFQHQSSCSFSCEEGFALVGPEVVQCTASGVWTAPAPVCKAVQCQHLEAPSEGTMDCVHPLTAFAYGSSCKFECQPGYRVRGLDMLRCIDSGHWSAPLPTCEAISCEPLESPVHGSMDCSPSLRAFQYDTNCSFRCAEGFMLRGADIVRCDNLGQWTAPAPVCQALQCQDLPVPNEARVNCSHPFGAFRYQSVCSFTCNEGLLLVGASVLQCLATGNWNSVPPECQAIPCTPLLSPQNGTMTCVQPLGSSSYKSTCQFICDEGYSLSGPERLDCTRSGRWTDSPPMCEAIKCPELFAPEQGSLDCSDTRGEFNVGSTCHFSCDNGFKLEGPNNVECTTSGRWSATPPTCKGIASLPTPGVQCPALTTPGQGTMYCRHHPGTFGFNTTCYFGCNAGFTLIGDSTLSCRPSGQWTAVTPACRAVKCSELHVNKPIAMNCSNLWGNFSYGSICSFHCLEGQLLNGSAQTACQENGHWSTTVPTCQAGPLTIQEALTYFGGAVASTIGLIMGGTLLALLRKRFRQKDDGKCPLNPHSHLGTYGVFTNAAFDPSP
Summary of the method: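 Isolated human neutrophils (2×10^5 per well) in HBSS with Ca2+/Mg2+ and HSA added to wells coated overnight at 4° C with platelet-derived P-selectin (5 micrograms/mL), HSA-blocked; 20 min at 22° C. Nonadherent cells removed by inverted centrifugation at 150 g; adherent cells quantified by myeloperoxidase activity.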

[2] = disulfide bond, water

SMILES: CC(C)[C@@H](NC(=O)[C@@H](CCCNC(=N)N)NC(=O)[C@H](NC(=O)[C@@H](Cc1c[nH]c2ccccc12)NC(=O)[C@H]1CSSC[C@@H](NC(=O)[C@@H](CCCCN)NC(=O)[C@H](N)CCCNC(=N)N)C(=O)NCC(=O)N[C@@H](Cc2ccccc2)C(=O)N1)[C@H](C)O)C(N)=O [(90)] (H-[dR][dK][dC]GF[dC][dW][dT][dR][dV]-NH2; disulfide 3-6)
IC50 (P-selectin): 9.9 µM
ring closure, yield of all isomers ([2]; from CC(C)[C@@H](NC(=O)[C@@H](CCCNC(=N)N)NC(=O)[C@H](NC(=O)[C@@H](Cc1c[nH]c2ccccc12)NC(=O)[C@@H](CS)NC(=O)[C@H](Cc1ccccc1)NC(=O)CNC(=O)[C@@H](CS)NC(=O)[C@@H](CCCCN)NC(=O)[C@H](N)CCCNC(=N)N)[C@H](C)O)C(N)=O, DMSO, 0.747 mM, 16.0 h): 18.5%

SMILES: CC[C@@H](C)[C@H]1NC(=O)[C@H](NC(=O)[C@@H](CCCCN)NC(=O)[C@H](N)CCCNC(=N)N)CSSC[C@H](C(=O)N[C@H](Cc2c[nH]c3ccccc23)C(=O)N[C@@H](C(=O)N[C@H](Cc2c[nH]c3ccccc23)C(=O)N[C@@H](C(N)=O)C(C)C)[C@H](C)O)NC(=O)[C@H](Cc2ccccc2)NC1=O [(93)] (H-[dR][dK][dC][dI]F[dC][dW][dT][dW][dV]-NH2; disulfide 3-6)
IC50 (P-selectin): 67.5 µM
ring closure, yield of all isomers ([2]; from CC[C@@H](C)[C@@H](NC(=O)[C@@H](CS)NC(=O)[C@@H](CCCCN)NC(=O)[C@H](N)CCCNC(=N)N)C(=O)N[C@@H](Cc1ccccc1)C(=O)N[C@H](CS)C(=O)N[C@H](Cc1c[nH]c2ccccc12)C(=O)N[C@@H](C(=O)N[C@H](Cc1c[nH]c2ccccc12)C(=O)N[C@@H](C(N)=O)C(C)C)[C@H](C)O, DMSO, 0.671 mM, 16.0 h): 22.3%

SMILES: CCCCNC(=O)[C@H](CCC(N)=O)NC(=O)[C@@H](Cc1c[nH]c2ccccc12)NC(=O)[C@H](NC(=O)[C@@H](Cc1c[nH]c2ccccc12)NC(=O)[C@H]1CSSC[C@@H](NC(=O)[C@@H](CCCCN)NC(=O)[C@H](N)CCCNC(=N)N)C(=O)NCC(=O)N[C@@H](Cc2ccccc2)C(=O)N1)[C@H](C)O [(102)] (H-[dR][dK][dC]GF[dC][dW][dT][dW]Q-NHBu; disulfide 3-6)
IC50 (P-selectin): 8 µM
ring closure, yield of all isomers ([2]; from CCCCNC(=O)[C@H](CCC(N)=O)NC(=O)[C@@H](Cc1c[nH]c2ccccc12)NC(=O)[C@H](NC(=O)[C@@H](Cc1c[nH]c2ccccc12)NC(=O)[C@@H](CS)NC(=O)[C@H](Cc1ccccc1)NC(=O)CNC(=O)[C@@H](CS)NC(=O)[C@@H](CCCCN)NC(=O)[C@H](N)CCCNC(=N)N)[C@H](C)O, DMSO, 0.681 mM): 21.5%

SMILES: CC(C)[C@@H](NC(=O)[C@@H](Cc1c[nH]c2ccccc12)NC(=O)[C@H](NC(=O)[C@@H](Cc1c[nH]c2ccccc12)NC(=O)[C@H]1CSSC[C@@H](NC(=O)[C@@H](CCCCN)NC(=O)[C@H](N)CCCNC(=N)N)C(=O)NCC(=O)N[C@@H](Cc2ccccc2)C(=O)N1)C(C)C)C(=O)O [(103)] (H-[dR][dK][dC]GF[dC][dW][dV][dW][dV]-OH; disulfide 3-6)
IC50 (P-selectin): 42.7 µM
ring closure, yield of all isomers ([2]; from CC(C)[C@@H](NC(=O)[C@@H](Cc1c[nH]c2ccccc12)NC(=O)[C@H](NC(=O)[C@@H](Cc1c[nH]c2ccccc12)NC(=O)[C@@H](CS)NC(=O)[C@H](Cc1ccccc1)NC(=O)CNC(=O)[C@@H](CS)NC(=O)[C@@H](CCCCN)NC(=O)[C@H](N)CCCNC(=N)N)C(C)C)C(=O)O, air, Cu wire, ammonium acetate, 0.605 mM, 22.0 h): 2.7%

SMILES: CC(C)[C@@H](NC(=O)[C@@H](Cc1c[nH]c2ccccc12)NC(=O)[C@H](NC(=O)[C@@H](Cc1c[nH]c2ccccc12)NC(=O)[C@H]1CSSC[C@@H](NC(=O)[C@@H](CCCCN)NC(=O)[C@H](N)CCCNC(=N)N)C(=O)NCC(=O)N[C@@H](Cc2ccccc2)C(=O)N1)[C@H](C)O)C(N)=O [Preferred peptide (19), D-Arginyl-D-lysyl-cyclo(D-cysteinyl-glycyl-phenylalanyl-D-cysteinyl-)-D-tryptophyl-D-threonyl-D-tryptophyl-D-valine-amide] (H-[dR][dK][dC]GF[dC][dW][dT][dW][dV]-NH2; disulfide 3-6)
inhibition of neutrophil influx (result in words) ([1]; rat thioglycolate-induced peritonitis, FIG. III): inhibition of neutrophil influx

The next lines start with results.

IC50 (P-selectin): 6 µM
SMILES: CC(C)[C@@H](NC(=O)[C@@H](Cc1c[nH]c2ccccc12)NC(=O)[C@H](NC(=O)[C@@H](Cc1c[nH]c2ccccc12)NC(=O)[C@H]1CSSC[C@@H](NC(=O)[C@@H](CCCCN)NC(=O)[C@H](N)CCCNC(=N)N)C(=O)NCC(=O)N[C@@H](Cc2ccccc2)C(=O)N1)[C@H](C)O)C(N)=O [(19)] (H-[dR][dK][dC]GF[dC][dW][dT][dW][dV]-NH2; disulfide 3-6)
decrease in neutrophil influx in response to thioglycolate stimulation ([1]; CD-1 rats, thioglycollate i.p., peptide injected at -5 minutes, 1.5 hours and 3.5 hours, peritoneal cells counted at 4 hours): 67%

IC50 (P-selectin): 2.4 µM
SMILES: CC[C@@H](C)[C@H]1NC(=O)[C@H](NC(=O)[C@@H](CCCCN)NC(=O)[C@H](N)CCCNC(=N)N)CSSC[C@H](C(=O)N[C@H](Cc2c[nH]c3ccccc23)C(=O)N[C@@H](C(=O)N[C@H](Cc2c[nH]c3ccccc23)C(=O)N[C@@H](C(N)=O)C(C)C)[C@H](C)O)NC(=O)[C@H]([C@@H](C)CC)NC1=O [(92)] (H-[dR][dK][dC][dI]I[dC][dW][dT][dW][dV]-NH2; disulfide 3-6)
ring closure, yield of all isomers ([2]; from CC[C@@H](C)[C@@H](NC(=O)[C@@H](CS)NC(=O)[C@@H](CCCCN)NC(=O)[C@H](N)CCCNC(=N)N)C(=O)N[C@H](C(=O)N[C@H](CS)C(=O)N[C@H](Cc1c[nH]c2ccccc12)C(=O)N[C@@H](C(=O)N[C@H](Cc1c[nH]c2ccccc12)C(=O)N[C@@H](C(N)=O)C(C)C)[C@H](C)O)[C@@H](C)CC, DMSO, 0.0765 mM, 24.0 h): 17.5%

IC50 (P-selectin): 2.2 µM
SMILES: CC(C)[C@@H](NC(=O)[C@@H](Cc1c[nH]c2ccccc12)NC(=O)[C@H](NC(=O)[C@@H](Cc1c[nH]c2ccccc12)NC(=O)[C@H]1CSSC[C@@H](NC(=O)[C@@H](CCCCN)NC(=O)[C@H](N)CCCNC(=N)N)C(=O)N[C@@H](Cc2c[nH]cn2)C(=O)N[C@@H](Cc2ccccc2)C(=O)N1)[C@H](C)O)C(N)=O [(94)] (H-[dR][dK][dC]HF[dC][dW][dT][dW][dV]-NH2; disulfide 3-6)
ring closure, yield of all isomers ([2]; from CC(C)[C@@H](NC(=O)[C@@H](Cc1c[nH]c2ccccc12)NC(=O)[C@H](NC(=O)[C@@H](Cc1c[nH]c2ccccc12)NC(=O)[C@@H](CS)NC(=O)[C@H](Cc1ccccc1)NC(=O)[C@H](Cc1c[nH]cn1)NC(=O)[C@@H](CS)NC(=O)[C@@H](CCCCN)NC(=O)[C@H](N)CCCNC(=N)N)[C@H](C)O)C(N)=O, DMSO, 0.714 mM): 10.7%
